Results on six molecules are retold here after US20220348877A1, “GENERATION OF QUIESCENT CARDIAC FIBROBLASTS FROM HUMAN INDUCED PLURIPOTENT STEM CELLS FOR IN VITRO MODELING OF CARDIAC FIBROSIS” (The Board of Trustees of the Leland Stanford Junior …, priority 2019, published 2022).

For data set [1], the system named is human iPSC-CFs co-cultured with iPSC-CMs. In words: Indirect co-culture of iPSC-CFs with iPSC-CMs in the presence of TGF-β ± sacubitril (qPCR, immunoblot). In kind it is cell-based. The procedure: (§1) Quantitative real-time PCR. Total RNA was isolated using the Qiagen miRNeasy Mini Kit (Qiagen Sciences, Inc, Germantown, Md.) following the manufacturer's instruction. For reverse transcription, a High Capacity RNA-to-cDNA kit (Life Technologies) was used, and the cDNA template was synthesized based on 1 μg of total mRNA. After mixing 0.2 μl of the cDNA template, 1 μl of TaqMan® primer sets (Life Technologies), 10 μl of TaqMan® Master Mix (Life Technologies), and 8.8 μl of ddH2O in the reaction system, real-time quantitative PCR was performed on the StepOne™ Real-Time PCR System (Life Technologies). Each reaction was run in triplicate. Expression values were normalized to the average expression of GAPDH.
(§2) Immunoblotting and quantification. Cultured cells were homogenized in the RIPA buffer with proteinase and phosphatase inhibitor cocktails (78440, ThermoFisher), and quantified by Pierce™ BCA Protein Assay Kit (Pierce Biotechnology Inc.). A total of 20 μg protein was separated on NuPAGE® Novex® 4-12% Bis-Tris Protein Gels (Invitrogen, Carlsbad, Calif.). After being transferred to Amersham™ Hybond™ Blotting Membranes (GE Healthcare), proteins were incubated with primary antibodies against α-SMA (ab7817, Abcam), periostin (ab14041, Abcam), collagen Ill (ab7778, Abcam), fibronectin (ab6328, Abcam), MYH7 (sc-53089, Santa Cruz), and GAPDH (MA5-15738, Invitrogen). Band intensities for target bands were analyzed and quantified by the ImageJ Fuji program.
(§3) Drug treatment. Unless otherwise stated, cells were treated with all drugs for 48 hrs. We used 5 ng/ml of TGFβ1 (240-B-010, R&D) to activate iPSC-CFs. Due to the short half-life, BNP (CYT-369, Prospec) was added into the medium three times a day. We used 20 μM of sacubitril (SML1380, Sigma) to inhibit ANP/BNP degradation. We used pirfenidone (S2907, Selleck Chemicals) and doxorubicin (25316-40-9, Selleck Chemicals) to test their anti-fibrotic and pro-fibrotic effects on iPSC-CFs, respectively.
Indirect and direct contact co-culture. […] As a control, iPSC-CMs were co-cultured with iPSC-CMs in the transwells. The co-cultures were incubated at 37° C. and 5% CO2 before analysis. For direct contact co-culture, we first labeled fibroblasts and iPSC-CMs with CFSE (C34554, Thermo Fischer) and Far cell trace red (C34564, Thermofisher) dyes, respectively. Then, iPSC-CFs were seeded on top of the iPSC-CM monolayer at a ratio of 1:5, allowing for direct cell-cell contact. After 5 days of co-culture, the two cell types were separated by FACS sorting for downstream molecular analyses. The medium used for co-culture is the mixture of RPMI+B27 and fibroblast growth medium at a ratio of 3:1.
(In general: In qPCR the cycle at which signal appears reflects the starting amount.)

Data set [2] relates to human iPSC-CFs. The data set can be described thus: Flow cytometry (FACS) of α-SMA+ myofibroblast population. The following applies: for effect on TGF-β-induced upregulation of α-SMA / propagation of the α-SMA+ population: in presence of TGF-β, FIG. 5I. In kind it is cell-based. The procedure:
Fluorescence-activated cell sorting (FACS) analysis. Cells were dissociated into singlets by TrypLE™ (12605, Gibco) for 10 min at 37° C., and the cell suspension was filtered through a 40-μm cell strainer (BD Falcon, San Diego) to remove cell clumps. Single cells were fixed and permeabilized by BD CytofixCytoperm™ buffer (BD 554722) for 20 min at 4° C. Next, cells were incubated with primary antibodies followed by Alexa Fluor™ secondary antibodies (Invitrogen). Primary antibodies against COLI (ab90395, Abcam), DDR2 (sc-81707, Santa Cruz), TCF21 (hpa013189, Sigma-Aldrich), α-SMA (ab7817, Abcam), and WT1 (ab89901, Abcam) were used. The percentage of fibroblasts was calculated as the ratio of TCF21+, DDR2+, and COL-1+ cells in the whole population, respectively. The percentage of myofibroblasts was calculated as the ratio of α-SMA+ cells in the whole population.
as §3
(A flow cytometer gives signals particle by particle.)

For data set [3] the following is noted: circulatory system; degrading enzyme neprilysin; cited from earlier work.
In data set [4] the test system is human iPSC-CFs. In words: Quantitative real-time PCR of gene expression in drug-treated iPSC-CFs. In kind it is cell-based. The method, then: as §1, §3
For data set [5], the system named is human iPSC-CFs. In words: Immunoblotting of α-SMA in drug-treated iPSC-CFs. The data set is classed as cell-based. The procedure:
as §2, §3
A general note: Immunoblotting shows a protein as a band on a membrane.

Data set [6] deals with human iPSC-CFs. The data set can be described thus: Collagen gel contraction assay. In kind it is cell-based. To be noted: TGF-β ± SB; gels imaged after 24 hrs. The procedure:
Gel contraction assay. Collagen gel contraction assays were performed in three independent lines of iPSC-CFs (2.0×10^5 cells per well) using a Cell Contraction Assay kit (CBA5020, Cell Biolabs) as per the manufacturer's protocol. The cells were treated in the absence or presence of TGF-β±a TGF-β inhibitor SB431542 (SB). The gels were imaged after 24 hrs and gel area was quantified using ImageJ software (version 1.49).

Data set [7] deals with human iPSC-CFs. In words: CF differentiation and passaging in the presence of TGF-β inhibitor. The data set is classed as cell-based. The method, then: Differentiation of human iPSC-derived cardiac fibroblasts. Human iPSCs were treated with 6 μM of CHIR99021 for 2 days, recovered in RPMI+B27-insulin for 24 hrs, treated with 5 μM of IWR-1 (10161, Sigma) for 2 days, and then RPMI+B27-insulin for another 24 hrs. On day 6, human induced pluripotent stem cell-derived cardiac progenitor cells (iPSC-CPCs) were re-plated at a density of 20,000 cells/cm2 in advanced DMEM medium (12634028, Gibco®, Life Technologies). On day 7 or 8, cells were treated with 5 μM of CHIR99021 and 2 μM of retinoic acid (R2625, Sigma-Aldrich) for 2 days, and recovered in advanced DMEM for 3 days. Typically, the purity of human induced pluripotent stem cell-derived epicardial cells (iPSC-EPCs) is >90% (WT1+). Human iPSC-EPCs were re-plated and treated with […] (100-18B, PeproTech) and 10 μM of SB431542 (S1067, Selleck chemicals) in a fibroblast growth medium for another 6 days. >90% purity of iPSC-CFs (COL-I+/DDR2+/TCF21+) can be achieved as assessed by FACS. Cultures were maintained in a humidified atmosphere (95% air, 5% CO2) at 37° C.
Differentiation of Quiescent Cardiac Fibroblasts from iPSC Derived Epicardial Cells. 1. On day 14, prepare fibroblast growth medium containing 20 ng/ml of FGF2 and 10 μM of SB431542. 2. Aspirate the spent medium, add 1 ml of Accutase per well in a 6-well plate, and incubate the plate in a […], 5% CO2 incubator for 5 min. […]

Entries after “also recorded” stand apart in the source; their conditions may differ.

Take `CCOC(=O)[C@H](C)C[C@@H](Cc1ccc(-c2ccccc2)cc1)NC(=O)CCC(=O)O` [sacubitril]: in data set [1] (TGF-β, 20 μM sacubitril), the “mRNA levels of myofibroblast markers and ECM genes in the co-cultured condition” value was “further decreased”; the “protein levels of myofibroblast markers and ECM genes in the co-cultured condition” value was “further decreased”. Besides, the “anti-fibrotic effect seen in co-culture” value in data set [1] (iPSC-CMs and iPSC-CFs co-culture) was “significantly enhanced”. Also, the myofibroblast marker periostin result in data set [1] (only when added to the co-culture system) is “significantly decreased”.
On to `COc1cccc2c1C(=O)c1c(O)c3c(c(O)c1C2=O)C[C@@](O)(C(=O)CO)C[C@@H]3O[C@H]1C[C@H](N)[C@H](O)[C@H](C)O1` [doxorubicin], for which, in the data set with human iPSC-CFs [2] (FIG. 5J, vs ctrl group), the “induction of the α-SMA+ population (pro-fibrosis phenotype)” value is “dose-dependent pattern; also recorded: dose-dependent induction”.
Take `Cc1ccc(=O)n(-c2ccccc2)c1` [pirfenidone]: the “effect on TGF-β-induced upregulation of α-SMA / propagation of the α-SMA+ population” value was “significantly suppresses” with human iPSC-CFs [2] and “dose dependent inhibitory effect” in the data set with human iPSC-CFs [2] (listed as Pirfenidone).
For the molecule atrial natriuretic peptide [ANP], the half-life in data set [3] was 3 min.
Take brain natriuretic peptide [BNP]: in the data set on human iPSC-CFs [4] (in the presence of TGF-β), the “mRNA levels of CF markers (PDGFRA and TCF21)” value is “higher levels”; the “mRNA levels of myofibroblast markers and ECM genes (ACTA2, POSTN, COL1A1, COL3A1)” value is “significantly lower”. The half-life in data set [3] was 20 min. Moreover, in the data set with human iPSC-CFs [5] (in the presence of TGF-β, dose-dependent manner), the “α-SMA protein levels with escalating concentrations” value is listed as “significantly suppressed”.
With `NC(=O)c1ccc(-c2nc(-c3ccc4c(c3)OCO4)c(-c3ccccn3)[nH]2)cc1` [SB431542, 4-[4-(1,3-benzodioxol-5-yl)-5-(2-pyridinyl)-1H-imidazol-2-yl]benzamide, reference compound], the “effect on TGF-β-induced upregulation of myofibroblast markers ACTA2 and POSTN” value in the data set on human iPSC-CFs [4] (TGF-β ± SB) was “effectively inhibited”. For the same molecule, in the data set with human iPSC-CFs [6], the “effect on TGF-β-induced collagen gel contraction” value was “completely abrogated”. Besides, the “effect on TGF-β-induced upregulation of α-SMA / propagation of the α-SMA+ population” value with human iPSC-CFs [2] is given as “significantly suppresses”. Besides, in the data set on human iPSC-CFs [7] (SB added during CF differentiation, transcriptional and protein levels), the “levels of smooth muscle marker genes (ACTA2, CNN1, TAGLN, SMTN, MYH11) in iPSC-CFs” value is “negligible levels”. In addition, the “αSMA+ cells (quiescent state preserved)” value in the data set with human iPSC-CFs [7] (until passage 5, inhibitor present in fibroblast growth medium) is roughly 5%. For the same molecule, the “effect on TGF-β-induced increase of α-SMA protein levels” value in the data set with human iPSC-CFs [5] (CFs from different human iPSC lines, TGF-β ± SB) was “abolished”.

One may read the half-life as the time needed for the level to fall by half in the phase considered.
